# Source: patent US20110003898A1, “MEDICAL GLUES FOR SURGERY COMPRISING BIOACTIVE COMPOUNDS” (Bayer MaterialScience AG, priority 2008, published 2011)
# What was measured:
# Assay type in all cases: physicochemical
# [1] = Film formation on the skin, cure time to disappearance of surface tackiness; details: adhesive with 2-5% active ingredient; ^2 = suspension
# Description: (§1) 0.45 g of PEG 200 were mixed thoroughly with 0.55 g of aspartate B and 2-5% of the active ingredient. The solution was stirred with 4 g of prepolymer A and applied to the tissue. We tested for processing time and the effect of adhesion to meat as well as the formation of a film on the skin.
# [2] = Active substance release from adhesive film into physiological saline (HPLC-UV/MS); details: 37° C., 2 h; for Release: 5x5 cm section (0.5 g) in 20 g physiological saline; for Amount of active substance released [%]: physiological saline
# Procedure: For the quantitative determination of the active substance release, a transparent film with a thickness of 200 ? was produced by knife coating from 4 g of prepolymer A, 0.45 g of PEG 200, […] A section measuring 5×5 cm (weight: 0.5 g) was cut from this film, placed in a petri dish, covered with 20 g of physiological saline solution, and stored in an incubator at 37° C. for 2 h. The quantitative determination was carried out via HPLC-UV/MS (HPLC column: Inertsil ODS 3 5 □ 120 A 125 mm*2.1 mm 60° C.; eluent A: 25 mmol ammonium acetate in water, eluent B: 25 mmol ammonium acetate in methanol).
# [3] = Pot life (processing time) of adhesive with active ingredient; details: 0.45 g PEG 200, 0.55 g aspartate B, 2-5% active ingredient, 4 g prepolymer A; ^2 = active substance in suspension
# Description: as §1
# [4] = 100 mg active substance in film
# [5] = 250 mg active substance in film
Structure (SMILES),Film formation cure time [min to disappearance of surface tackiness] [1],also measured
CC(C)Cc1ccc(C(C)C(=O)O)cc1 (stereo not shown) [ibuprofen],6 min,
CCn1cc(C(=O)O)c(=O)c2ccc(C)nc21 [nalidixic acid],5 min,"Release [2, 4]: 110 mg/L; Amount of active substance released [%] [2, 4]: 22%"
CC[C@H]1OC(=O)[C@H](C)[C@@H](O[C@H]2C[C@@](C)(OC)[C@@H](O)[C@H](C)O2)[C@H](C)[C@@H](O[C@@H]2O[C@H](C)C[C@H](N(C)C)[C@H]2O)[C@](C)(O)C[C@@H](C)C(=O)[C@H](C)[C@@H](O)[C@]1(C)O [erythromycin],6 min,
Cc1ncc([N+](=O)[O-])n1CCO [metronidazole],5 min,Pot life [3]: 2 min
CC(=O)Nc1ccc(O)cc1 [paracetamol],7 min,"Release [2, 4]: 136 mg/L; Amount of active substance released [%] [2, 4]: 27.2%"
Cc1ccc(C(C)C)c(O)c1 [thymol],5 min,
[H]/N=C(\N/C(=N/[H])NCCCCCCNC(=N)NC(=N)Nc1ccc(Cl)cc1)Nc1ccc(Cl)cc1 [chlorhexidine],3 min,Pot life [3]: 0.5 min
CCN(CC)CC(=O)Nc1c(C)cccc1C [lidocaine],4 min,"Release [2, 5]: 570 mg/L; Amount of active substance released [%] [2, 5]: 45.6%"
O=C1OC(CN2CCOCC2)CN1/N=C/c1ccc([N+](=O)[O-])o1 (stereo not shown) [furaldatone],4 min,
CC(=O)Oc1ccccc1C(=O)O [acetylsalicylic acid],4 min,"Release [2, 5]: 320 mg/L; Amount of active substance released [%] [2, 5]: 25.6%"
OC(Cn1cncn1)(Cn1cncn1)c1ccc(F)cc1F [fluconazole],15 min,Pot life [3]: 3 min
COc1cccc(C2(O)CCCCC2CN(C)C)c1 (stereo not shown) [tramadol],4 min,
"Oc1cc(Cl)ccc1Oc1ccc(Cl)cc1Cl [triclosan (Irgasan), 2,4,4′-trichloro-2′-hydroxydiphenyl ether]",5 min,
CCCCN1CCCCC1C(=O)Nc1c(C)cccc1C (stereo not shown) [bupivacaine],6 min,
C[C@]12CCC(=O)C=C1CC[C@@H]1[C@@H]2C(=O)C[C@@]2(C)[C@H]1CC[C@]2(O)C(=O)CO [cortisone],5 min,"Release [2, 4]: 230 mg/L; Amount of active substance released [%] [2, 4]: 46%"
CCOC(=O)c1ccc(N)cc1 [benzocaine],6 min,
COc1ccc2c(c1)c(CC(=O)OCC(=O)O)c(C)n2C(=O)c1ccc(Cl)cc1 [acemetacine],7 min,
CCCCNc1ccc(C(=O)OCCN(C)C)cc1 [tetracaine],7 min,
CCN1CCN(c2cc3c(cc2F)c(=O)c(C(=O)O)cn3C2CC2)CC1 [enrofloxazine],4 min,Pot life [3]: 1 min
O=C(N[C@H](CO)[C@H](O)c1ccc([N+](=O)[O-])cc1)C(Cl)Cl [chloramphenicol],5 min,"Release [2, 5]: 646 mg/L; Amount of active substance released [%] [2, 5]: 51.7%"
CC(=O)NS(=O)(=O)c1ccc(N)cc1 [sulfacetamide],5 min,
